{"source": "patent US6852696B2", "about": "“Inhibitors of glycosaminoglycans” (The University of Texas System, priority 1999, dated 2005)", "key": {"Langerhans cells (LC) [1]": {"tested_on": "Langerhans cells (LC)", "details": "co-pending application 60/126,475; cited from earlier work"}, "Langerhans cells (LC) [2]": {"tested_on": "Langerhans cells (LC)", "test": "Hapten (DNFB)-triggered LC emigration from the epidermis", "assay_type": "in vivo, BALB/c mice", "details": "two local injections before DNFB", "method": "FIG. 3. Impact of multimeric Pep-1 derivatives on hapten-induced LC migration. BALB/c mice received two local injections of the indicated Pep-1 derivatives in the right ear (closed circles) and the indicated RP derivatives in the left ear 24 and 3 hours before topical application of 0.5% DNFB on both ears. All the peptides were administered at the identical dose in terms of the molarity ([…]) of the 16-mer Pep-1 peptide sequence, i.e., 40 μg/injection/ear for monomeric Pep-1 and RP, […] for dimeric Pep-1 and RP, or 160 μg/injection/ear for PEG-conjugated tetrameric Pep-1 and RP. Ear skin samples were harvested at the indicated time points after DNFB painting and examined for surface densities of IA^+ LC. Data shown are the means+/−s.e.m.(n=3) of % LC emigration as calculated by dividing from the formula: [(LC number before DNFB application−LC number after DNFB application)/LC number before DNFB application]×100. Asterisks indicate statistically significant differences between the Pep-1 and the RP panels (**p<0.01 by two-tailed Student's t-test).\nPep-1 and its dimeric and tetrameric derivatives were compared for their in vivo activities to prevent hapten-triggered LC emigration from the epidermis."}, "[3]": {"details": "systemic, local, or topical administration; co-pending application; cited from earlier work"}, "Langerhans cells (LC) [4]": {"tested_on": "Langerhans cells (LC)", "test": "DNFB-induced LC maturation (CD86 expression by IA+ epidermal cells)", "assay_type": "in vivo, BALB/c mice", "details": "two local injections, 40 μg/injection/ear, 24 and 3 hours before DNFB", "excerpt": "FIGS. 6A-C. Impact of Pep-1 on hapten-induced LC maturation. (FIG. 6A) Epidermal cells isolated from BALB/c mice at 17 hr after topical application of 0.5% DNFB or vehicle alone were double-stained with FITC-conjugated anti-IA mAb and PE-conjugated anti-CD86 mAb. Data shown are representative two-color FACS profiles, documenting marked elevated surface expression of CD86 by IA^+ epidermal cells (i.e., LC) after DNFB application. (FIG. 6B) BALB/c mice received subcutaneous two local injections of Pep-1 or RP (40 μg/injection/ear) 24 and 3 hours before topical application of 0.5% DNFB and epidermal cells were isolated 17 hr later to examine the expression levels of CD86 on LC. […] (FIG. 6C) Graphical representation of the % CD86^+ cells/IA^+ LC from three independent experiments described in (FIG. 6B) with circles, triangles, and squares showing corresponding pairs in each experiment. Bars represent the mean values (n=3) and the asterisk indicates statistically significant difference between the Pep-1 and the RP panels (*p<0.03 by the Mann-Whitney U test).\nA critical question concerns the physiological significance of the above finding. Topical application of haptens is known to trigger not only LC migration from the epidermis, but also their maturation. […]"}, "DC-associated HA": {"tested_on": "DC-associated HA", "test": "Binding of biotinylated peptide to DC surfaces", "details": "biotinylated form", "method": "FIGS. 8B-D. Synthesis and surface expression of HA by DC. (B) XS106 DC were labeled with ^3H-glucosamine and then examined for the incorporation of hyaluronidase-sensitive radioactivities (means+/−s.e.m.; n=5) into the indicated subcellular fractions. (C) XS106 DC were incubated with biotinylated Pep-1 or RP and then with PE-conjugated streptavidin (filed histograms) (Mummert et al. J. Exp. Med. 192:769-779, 2000) or bovine testis hyaluronidase. Baseline staining levels with PE-streptavidin alone are shown with open histograms. (D) The indicated DC preparations were examined for binding of biotinylated Pep-1 (filled) and RP (open). Peptide binding to splenic DC and bone marrow-DC was examined within the CD11c^+ populations."}, "[5]": {"tested_on": "XS52 DC and HDK-1 T cells", "test": "Cytokine secretion in XS52 DC / HDK-1 T cell / KLH co-culture (ELISA)", "assay_type": "cell-based", "details": "500 μg/ml; dose-dependent", "method": "FIGS. 7A-C. Impact of tetrameric LIP on cytokine production during antigen presentation. (FIG. 7A) XS52 DC (0.2×10^6 cells/well) were cultured in the presence or absence of the KLH-reactive CD4^+ Thl clone HDK-1 (0.2×10^6 cells/well) and/or KLH (100 μg/ml). Culture supernatants collected at 24 hrs were examined for the indicated cytokines by ELISA. Data shown are the means+/−s.e.m. from triplicate samples. (FIG. 7B) XS52 DC and HDK-1 T cells were co-cultured with KLH in the presence of the indicated concentrations of Pep-1. Culture supernatants collected at 24 hrs were examined for the indicated cytokines by ELISA. (FIG. 7C) CD4^+ T cells isolated from DO11.10 transgenic mice (5×10^4 cells/well) were co-cultured with the indicated numbers of splenic DC isolated from BALB/c mice and the OVA peptide (2 μg/ml) in the presence of 500 μg/ml of Pep-1 (open circles), RP (triangles), or DMSO alone (closed circles). Co-cultures of CD4^+ T cells and DC in the absence of OVA peptide served as a control (square). All the cultures were examined for ^3H-thymidine uptake on Day 3. Data shown are the means+/−s.d. from triplicate samples.\nDuring antigen-specific interaction DC delivers activation signals to T cells, leading to differentiation and clonal expansion of antigen-reactive T cells. At the same time, T cells deliver signals back to DC, leading to “terminal maturation” of DC^80. To test the potential impact of Pep-1 on this bi-directional DC-T cell interaction, the present inventors employed a fully characterized in vitro experimental system in which XS52 DC are cultured with a KLH-reactive CD4^+ Th1 clone HDK-1 in the presence of antigen (KLH)^81-85."}, "HA": {"tested_on": "HA", "details": "co-pending application 60/126,475; cited from earlier work"}}, "note": "Entries after “also recorded” stand apart in the source; their conditions may differ."}
{"sequence": "GAHWQFNALTVR [Pep-1]", "values": [{"measurement": "inhibition of sensitization phase / hapten-triggered LC migration", "setting": "Langerhans cells (LC) [1]", "result": "blocking hapten-triggered migration of Langerhans cells"}, {"measurement": "inhibition of LC emigration", "setting": "Langerhans cells (LC) [2]; 24 hr after DNFB application", "result": "inhibited LC emigration almost completely"}, {"measurement": "inhibition of LC emigration", "setting": "Langerhans cells (LC) [2]; 48 hr after DNFB application", "result": "kinetics comparable to those observed in the control group receiving random peptide (RP) injections"}, {"measurement": "inhibition of LC emigration", "setting": "Langerhans cells (LC) [2]; 72 hr after DNFB application", "result": "kinetics comparable to those observed in the control group receiving random peptide (RP) injections"}, {"measurement": "inhibition of contact hypersensitivity responses", "setting": "[3]", "result": "inhibited the expression of contact hypersensitivity responses"}, {"measurement": "prevention of DNFB-induced LC maturation (CD86 up-regulation)", "setting": "Langerhans cells (LC) [4]", "result": "prevented this DNFB-induced LC maturation; also recorded: is prevented"}, {"measurement": "binding to other DC preparations (XS52 DC, splenic DC, bone marrow-derived DC)", "setting": "DC-associated HA", "result": "bound to all other tested DC preparations"}, {"measurement": "binding to surfaces of XS106 DC", "setting": "DC-associated HA", "result": "bound to the surfaces of XS106 DC"}, {"measurement": "binding to DC after hyaluronidase pretreatment", "setting": "DC-associated HA; hyaluronidase pretreatment of DC", "result": "abolished almost completely"}, {"measurement": "inhibition of IL-6 secretion", "setting": "[5]", "result": "almost complete inhibition"}, {"measurement": "inhibition of TNFα secretion", "setting": "[5]", "result": "almost complete inhibition"}, {"measurement": "inhibition of interferon-γ secretion", "setting": "[5]", "result": "almost complete inhibition"}, {"measurement": "inhibition of leukocyte adhesion to HA substrates", "setting": "HA", "result": "inhibited leukocyte adhesion to HA substrates almost completely"}]}
